Results as given in patent US7964629B2, “Inhibitors of isoprenylcysteine carboxyl methyltransferase” (Duke Universtiy, priority 2005, dated 2011).

Legend:
GGTase-I = GGTase-I (Homo sapiens, UniProt P49354+P53609); assay: GGTase-I inhibition (results not shown); assay type: biochemical; settings: concentrations up to 50 μM
[1] = system: Akt phosphorylation in DKOB8 colon cancer cells; assay: Phosphoprotein analysis: EGF-stimulated Akt; assay type: cell-based; settings: 1 μM, three days, 1% serum, EGF 10 min
Method: FIGS. 3A and 3B. Impact of cysmethynil treatment on Ras localization and signaling. FIG. 3A. Mislocalization of GFP Ras in cysmethynil treated cells. […] Live cells were imaged on a spinning disk confocal microscope. FIG. 3B. Impact of cysmethynil treatment on EGF-stimulated protein phosphorylation. […] Where indicated, cells were treated with EGF for the final 10 min prior to harvesting. Cell lysates containing equal amounts of protein were resolved on a 13% SDS-polyacrylamide gel and probed with antiphospho-Akt, antiphospho-p42/44 MAPK or anti-β-tubulin antibody as indicated. […] Half of the wells were then treated with EGF (10 ng/ml) and half with vehicle for 10 min. Cells were rinsed with PBS and harvested in SDS-PAGE loading buffer. Total cell lysates (30 μg protein) were resolved on 4-20% Tris-glycine polyacrylamide gels (Invitrogen). Proteins were transferred to nitrocellulose and probed with a mix of anti-phospho-Akt and anti-phospho-p42/44 MAPK antibodies, or with anti-tubulin or anti-phospho NFκB antibody (Cell Signaling Technology) as indicated. Visualization was performed with alkaline phosphatase (Promega, Madison, Wis.) as per the manufacturer's instructions.

[2] = system: RhoA in MDA-MB-231 breast cancer cells; assay: Immunoblot of steady-state Rho level; assay type: cell-based; settings: 20 μM, 6 day treatment
Method: (§1) The impact of Icmt inhibition on function of the geranylgeranylated GTPases Rho and Rac in cells has been examined. This study was carried out in MD-MBA-231 breast cancer cells. Tumorigenesis and metastatic behavior of these cells is dependent on high levels of Rho GTPases in particular. […] Cells were harvested and lysates containing equal amounts of protein were resolved by SDS-PAGE and subjected to immunoblot analysis with specific antibodies to RhoA (FIG. 7A), or Rac1 (FIG. 7B). As a control, immunoblot analysis for α-tubulin was carried out on all samples.

[3] = system: p42/44 MAPK phosphorylation in DKOB8 cells expressing GFP-Icmt; assay: EGF-stimulated MAPK activation in Icmt-overexpressing cells; assay type: cell-based; settings: 5 μM, three days, reduced-serum media; Icmt activity elevated 4-fold
Method: FIGS. 4A-4C. Overexpression of Icmt rescues EGF-stimulated MAPK activation and anchorage-independent growth in cysmethynil-treated cells. FIG. 4A. Creation of cell lines stably overexpressing Icmt. DKOB8 cells were engineered to stably express either GFP alone or a GFP-Icmt fusion protein. Membrane fractions from GFP and GFP-ICMT expressing lines were assayed for Icmt activity using the BFC assay. FIG. 4B. Overexpression of Icmt restores EGF-stimulated MAPK activation in cysmethynil-treated cells. […] Where indicated, cells were treated with EGF for the final 10 min prior to harvesting. Cell lysates containing equal amounts of protein were resolved on a 13% SDS-polyacrylamide gel and probed with antiphospho-p42/44 MAPK or, as a control, antiphospho NFκB antibody as indicated. FIG. 4C. […] After 3 weeks of growth, colonies were stained with MTT and imaged.
Half of the wells were then treated with EGF (10 ng/ml) and half with vehicle for 10 min. Cells were rinsed with PBS and harvested in SDS-PAGE loading buffer. Total cell lysates (30 μg protein) were resolved on 4-20% Tris-glycine polyacrylamide gels (Invitrogen). Proteins were transferred to nitrocellulose and probed with a mix of anti-phospho-Akt and anti-phospho-p42/44 MAPK antibodies, or with anti-tubulin or anti-phospho NFκB antibody (Cell Signaling Technology) as indicated. […]

[4] = system: α-tubulin in MDA-MB-231 breast cancer cells; assay: Immunoblot of control protein α-tubulin; assay type: cell-based; settings: 20 μM, 6 day treatment
Method: as §1

[5] = system: Icmt+/+ mouse embryonic fibroblasts; assay: Cell growth determination, wild-type fibroblasts; assay type: cell-based; settings: 15, 20, 30 μM; 10% serum; six days
Method: FIGS. 2A-2C. […] Media and drug were replaced daily, and cell growth was monitored for six days. Data represent the mean and standard deviation of four replicate wells. (FIG. 2A) Icmt^+/+ cells; (FIG. 2B) Icmt^−/− cells; (C) Icmt^−/− cells stably transfected with a gene expressing human ICMT (Icmt^−/−/ICMT cells).
Cell growth assays were performed in a 96-well plate format. Briefly, 500 to 1000 cells were plated into 96-well plates. After the cells were allowed to attach for 24 h, media was removed and replaced with media containing either compound or vehicle. Media and drug were replaced every 24 h throughout the assay. Cell determinations were made at the times indicated in the respective figure by adding 19 μl of CellTiter 96 AqueousOne solution to each well followed by incubation of the plates in the dark at 37° C. for two hr after which the absorbance at 490 nm was read. Background absorbance from blank wells containing only media with compound or vehicle was subtracted from each test well. Typically, 3-6 replicate wells were employed for each point in each assay.

FTase = FTase (Homo sapiens, UniProt P49354+P49356); assay: FTase inhibition (results not shown); assay type: biochemical; settings: concentrations up to 50 μM

CCCCCCCCn1cc(CC(N)=O)c2cc(-c3cccc(C)c3)ccc21 [cysmethynil, 2-[5-(3-methylphenyl)-1-octyl-1H-indol-3-yl]acetamide]
inhibition of GGTase-I (GGTase-I): did not inhibit
EGF-induced increase in Akt phosphorylation [1]: partially but not completely attenuated
Rho levels [2]: almost undetectable
blockade of EGF-stimulated MAPK activation [3]: protect the cells from cysmethynil blockade
level of control protein α-tubulin [4]: only marginally affected
cell growth [5]: dose-dependent inhibition of growth
inhibition of FTase (FTase): did not inhibit
